Assays:
[1] = set-up: method as in PMID 2886318; conditions: rats, cited from earlier work
[2] = system: FMO3 mRNA; assay: Gene expression in patients conditioned with busulphan (gene array, qRT-PCR); assay type: in vivo, human; conditions: oral Bu 2mg/kg b.i.d. for 4 days, normalized to GAPDH
Procedure: (§1) FMO3 mRNA expression was studied in twelve patients undergoing HSCT at the Center for Allogeneic Stem Cell Transplantation (CAST), Karolinska University Hospital-Huddinge, Sweden. The study was approved by the ethical committee of Karolinska Institutet (616/03) in accordance with the Helsinki Declaration of 1975 and with informed consent from each patient or their guardian. All patients were treated with oral Bu, administered at a dose of 2mg/kg (8μmol/kg) b.i.d. for 4 days followed by an i.v. infusion of cyclophosphamide (Cy) 60mg/kg/day (230μmol/kg/day) once daily for 2 days before the stem cell infusion.
(§2) Blood samples for mRNA quantification were collected in PAXgene^TM blood RNA tubes (BD, Stockholm, Sweden) prior to the start of Bu treatment and after the last Bu dose.
(§3) RNA was extracted from the mononuclear cells using QuickPreps^TM Total RNA Extraction Kit (GE Life Sciences, Uppsala, Sweden). RNA (1μg) was reverse transcribed to complementary DNA (cDNA) using the TaqMan^TM Kit (Applied Biosystems, Roche, NJ, USA).
Purified mRNA was subjected to analysis of global gene expression by using NimbleGen microarrays (Roche Diagnostics Scandinavia, Bromma, Sweden). Data were analyzed by Genespring GX (Agilent, CA, USA). Quantile normalization was used on the probe expression data generated using the Robust Multichip Average algorithm. […]

[3] = system: GSTA1 mRNA; assay: Gene expression in patients conditioned with busulphan (gene array); assay type: in vivo, human; conditions: oral Bu 2mg/kg b.i.d. for 4 days
Procedure: as §1, §2, §3
Purified mRNA was subjected to analysis of global gene expression by using NimbleGen microarrays (Roche Diagnostics Scandinavia, Bromma, Sweden). Data were analyzed by Genespring GX (Agilent, CA, USA). Quantile normalization was used on the probe expression data generated using the Robust Multichip Average algorithm.

[4] = Busulphan and THT plasma kinetics in a patient treated concomitantly with voriconazole; assay type: in vivo, human; conditions: Bu 2mg/kg b.i.d. with concomitant voriconazole
Procedure: In order to confirm the contribution of FMO3 to human Bu kinetics, blood samples were collected (routinely) from a patient who underwent stem cell transplantation and was conditioned according to the hospital transplantation protocol i.e. high dose of Bu (2mg/kg b.i.d.) for four days followed with two days of cyclophosphamide (60mg/kg). […] Voriconazole was administered, according to the hospital clinical protocol, for the treatment of an acute fungal infection.
Samples were taken for therapeutic drug monitoring (TDM) at several time points after the first, third and fifth doses. Blood was collected into EDTA vacutainer tubes, plasma was separated by centrifugation at 1200 g and stored at -20°C until analysis of Bu and THT [18].

[5] = cited from earlier work
[6] = in vivo; conditions: male, C57BL/6N, mouse, plasma, ip, 25 mg/kg
Procedure: (§4) Male C57BL/6N mice (6–8 weeks old) were purchased from Charles River (Cologne, Germany). The mice were allowed to acclimatize to the surroundings for 2 weeks with a 12h dark/12h light cycle and randomized for treatment. Standard laboratory chow and water ad libitum was introduced.
(§5) To study Bu and THT kinetics, Bu (Sigma-Aldrich, Steinheim, Germany) was administered i.p. (25mg/kg or 100μmol/kg) as a 2mM solution in DMSO (Sigma-Aldrich, Stockholm, Sweden) [21]. THT was also prepared as a 2mM solution in DMSO and the dose given was equimolar to the Bu treatment (i.e. 100μmol/kg or 8.8 mg/kg). Upon injection, samples were diluted with physiological NaCl solution to a final DMSO concentration of 10% in the dosing solution. At the appropriate time points (10min, 30min, 1h, 2h, 4h, 6h and 8h), mice (three mice at each time point) were anesthetized using 2% isoflurane and the blood samples were collected by heart puncture. Mice were euthanized by cervical dislocation. Plasma was separated and stored at -20°C.
(§6) PTU (3mg/kg) was dissolved in DMSO and diluted with physiological NaCl solution and then injected into the mice once daily followed by Bu or THT injections on the 4th day. The mice were euthanized and plasma samples prepared as in the previous experiment.
(§7) To detect the effect of high THT concentrations on Bu metabolism, a third group of mice was injected with both Bu (100μmol/kg) and a high dose of THT (17.6mg/kg or 200μmol/kg) and samples prepared as described previously. All experiments including negative controls (mice injected with 10% DMSO in NaCl solution) and mice injected with PTU alone were performed in triplicates.
(§8) To quantify Bu, samples were extracted according to the method reported previously by Hassan et al. [24]. Briefly, 500 μL of plasma were diluted with 500 μL of water. Fifty microliters of the internal standard (1,5-bis(methanesulfonoxy)pentane; 38.5 μM) were added, followed by the addition of 1 mL of sodium iodide (8M, Merck, Darmstadt, Germany) and 400μL of n-heptane (Merck, Darmstadt, Germany). The tubes were placed under magnetic stirring in a water bath (70°C) for 45 min. During the reaction, busulphan and 1,5-bis(methanesulfonoxy)pentane were converted to 1,4-diiodobutane and 1,5-diiodopentane respectively and subsequently extracted with n-heptane [25]. The conversion of busulphan and 1,5-bis(methanesulfonoxy)pentane to 1,4-diiodobutane and 1,5-diiodopentane was over 90% [24]. The organic phase was analyzed by GC-MS [18]. THT was quantified as described previously and the method was validated for use with mouse plasma before measuring both Bu and THT [19, 20].
(§9) Kinetic parameters from in vivo studies were estimated using WinNonLin software (standard edition, version 2.0), while Microsoft Excel and SigmaPlot software (version 12.5, Systat software, Inc.) were utilized for in vitro kinetics.

[7] = Busulphan kinetics in mice (alone, after PTU pretreatment, or with high-dose THT); conditions: for AUC / Cmax: male, C57BL/6N, mouse, plasma, ip, 25 mg/kg, mean
Procedure: as §4, §5, §6, §7, §8, §9

[8] = within 72 hours of administration
[9] = Group 1: mice, Bu 25mg/kg i.p. alone
[10] = Group 2: mice, Bu 25mg/kg i.p. after PTU 3mg/kg i.p. once daily for 3 days

Bu levels versus same dose of Bu administered alone [4]	Bu clearance versus a patient treated with Bu alone ([4]; P<0.05)	AUC [6] [µM·h]	Cmax [6] [µM]	AUC [7, 9] [µM·h]	AUC [7, 10] [µM·h]	Cmax [7, 9] [µM]	Cmax [7, 10] [µM]	Bu plasma concentrations and Bu exposure (AUC) versus Bu alone ([7]; mice treated with FMO3 inhibitor PTU before Bu administration)	levels of Bu versus Bu alone ([7]; mice, concomitant administration of THT and Bu)	Compound	share of Bu excreted in urine as this metabolite [1, 8] [%]	FMO3 mRNA after Bu conditioning versus before [2]	GSTA1 mRNA after Bu conditioning versus before [3]	Bu excreted in the urine as unchanged drug [1] [%]	Bu excreted in the form of its subsequent metabolites [1, 8]	decrease of Bu clearance ([5]; child with AML, after two days concomitant metronidazole) [%]	daily AUC in excess of the predicted ([5]; child with AML, concomitant metronidazole) [%]	mean Bu trough levels with concomitant metronidazole ([5]; patients undergoing HSCT)
										[O-][S+]1CCCC1 [THT 1-oxide, tetrahydrothiophene 1-oxide]	20							
										O=S1(=O)CCC(O)C1 (stereo not shown) [3-OH-sulfolane, 3-hydroxysulfolane]	39							
higher than expected	slower	65.5	16.5	44.3	65.3	7.47	25.5	significantly (P<0.05, t-test) higher	higher levels	CS(=O)(=O)OCCCCOS(C)(=O)=O [Bu, Busulphan]		significant up-regulation	significantly up-regulated	2	more than 70%	46	86	two-fold higher

— paper PMC5679629, “Flavin-containing monooxygenase 3 (FMO3) role in busulphan metabolic pathway” (PLoS ONE, 2017)
